Laboratory results reported in patent US6395286B1, “Cosmetic compositions containing anise extract and retinoids” (Unilever Home & Personal Care USA, division of Conopco, Inc., priority 1999, dated 2002).

Tested on: CRABP-2 expression of fibroblasts
Assay: CRABP-2 protein expression in fibroblasts (Western blot, densitometric scanning)
Assay type: cell-based, Human
Conditions: for CRABP-2 levels: 4 h anise pre-treatment, 48 h incubation, +/− SD of triplicates; for As % of control: control as 100%
Procedure: Dried […] seeds (Pimpinella anisum) was purchased from local markets and powdered in a dry grinder. The alcoholic extract of anise seed was prepared by stirring 1 gram of the dry anise seed powder in 10 ml of ethanol from the list of solvents given below for 4 to 24 hrs at room temperature. The extracts were clarified by filtration and centrifugation, to obtain a 10% extract of anise seed in the particular solvent. Human adult fibroblasts obtained from sun-protected inner arm of 25-30 year […] volunteer were used in this. Cells were grown in 1:1 DMEM/Hams F12 media containing 10% FBS, maintained at 37C in a 5% CO2 atmosphere under normal atmospheric oxygen tension. Third passage adult fibroblasts were grown in DMEM media with 10% FBS in 12-well plates at a seeding density of 40,000 cells/ml/well. The cells at 80% confluence were rinsed in serum free and phenol red free (PRF) DMEM media twice. Pre-treatment with anise seed extract for 4 hours was conducted and then dosed with retinoids and was incubated for 48 hours. After the incubation, the wells were washed twice with 1×PBS and the cell monolayer was harvested in 100 μl cell lysis buffer (contains 1×PBS, 1% TritonX, 0.5% sodium deoxycholate, 0.1% SDS containing protease inhibitor (10 mg/ml PMSF in isopropanol, 10 μl/ml). The suspension was spun at 14000 rpm for 10 minutes, the supernatant collected and an aliquot of this supernatant was used for protein quantification. Protein concentration was determined using Pierce protein kit. The remainder of 100 μl supernatant (cell lysate) was denatured in a mixture of 40 μl sample buffer (NOVEX) and 0.5% Beta mercaptoethanol (BME) and by boiling the sample for 5 minutes. Equal amount of protein was then loaded onto 16% Tris-glycine gels for protein analysis by SDS page and Western Immuno-blotting for CRABP-2 protein expression. To measure the levels of CRABP-2 in the fibroblasts prepared as described above, the cell supernatant was re-suspended in 4× sample buffer and 0.5% BME, boiled for 5 minutes and used for western blotting. Equal amounts of protein were loaded onto 16% Tris-glycine gels for CRABP-2 protein analysis by SDS page and Western Immuno-blotting. The gels were transferred to nitrocellulose blots and Western Blotting was carried out using monoclonal antibodies to CRABP-2 according to standard procedures. The CRABP-2 protein band was visualized in the Western Blots using the chemiluminescence system obtained from Santa Cruz Biotechnology (SantaCruz, Calif.). The bands in the film were quantitated by densitometric scanning, the data from triplicate samples were calculated as % of control and expressed in the following tables as % increase over control (with control as 100%) +/−SD of triplicates.

[1] = Example 1: 100 nM retinoids and 0.1 μl of a 10% anise seed extract
[2] = Example 2: 100 nM retinoids and 1.0 μl of a 10% anise seed extract
[3] = Example 3: 500 nM retinoids and 0.1 μl of a 10% anise seed extract
[4] = Example 4: 500 nM retinoids and 1.0 μl of a 10% anise seed extract

Row | Compound | CRABP-2 levels [1] | As % of control [1] | CRABP-2 levels [2] | As % of control [2] | CRABP-2 levels [3] | As % of control [3] | CRABP-2 levels [4] | As % of control [4]
1 | CC1=C(/C=C/C(C)=C/C=C/C(C)=C/CO)C(C)(C)CCC1 [Retinol] | 1.36 +/− 0.17 | 317 +/− 39 % of control | 1.36 +/− 0.17 | 317 +/− 39 % of control | 0.66 +/− 0.19 | 154 +/− 44 % of control | 0.66 +/− 0.19 | 154 +/− 44 % of control
2 | CCCCCCCCCCCCCCCC(=O)OC/C=C(C)/C=C/C=C(C)/C=C/C1=C(C)CCCC1(C)C [Retinyl Palmitate] | 1.12 +/− 0.15 | 262 +/− 37 % of control | 1.12 +/− 0.15 | 262 +/− 37 % of control | 0.83 +/− 0.5 | 193 % of control | 0.83 +/− 0.5 | 193 % of control
3 | CC(=O)OC/C=C(C)/C=C/C=C(C)/C=C/C1=C(C)CCCC1(C)C [Retinyl acetate] | 2.38 +/− 0.81 | 553 % of control | 2.38 +/− 0.81 | 553 % of control | 1.02 +/− 0.56 | 237 % of control | 1.02 +/− 0.56 | 237 % of control
4 | CCCCC/C=C\C/C=C\CCCCCCCC(=O)OC/C=C(C)/C=C/C=C(C)/C=C/C1=C(C)CCCC1(C)C [Retinyl linoleate] | 1.23 +/− 0.28 | 286 +/− 65 % of control | 1.23 +/− 0.28 | 286 +/− 65 % of control | 0.99 +/− 0.13 | 231 +/− 30 % of control | 0.99 +/− 0.13 | 231 +/− 30 % of control
